Nc1cccc(Cl)c1C(=O)O
solubility (mole fraction)
Settings	278.15 K	283.15 K	288.15 K	293.15 K	298.15 K	303.15 K	308.15 K	313.15 K	318.15 K	323.15 K
in NMP	0.0744	0.0797	0.0873	0.0958	0.106	0.119	0.135	0.155	0.178	0.204
in acetonitrile	0.00746	0.00991	0.0129	0.0166	0.0208	0.0259	0.0313	0.0377	0.045	0.0541
in cyclohexane	–	4.1e-05	6e-05	8.7e-05	0.000115	0.000155	0.000205	0.000269	0.000344	0.000445
in ethanol	0.0284	0.0346	0.0408	0.049	0.0584	0.0702	0.0831	0.1	0.119	0.141
in ethyl acetate	0.0257	0.0303	0.036	0.0423	0.051	0.0612	0.0731	0.0867	0.103	0.122
in ethylene glycol	0.0133	0.0175	0.0225	0.0283	0.0349	0.0423	0.0505	0.0601	0.071	0.0848
in isobutanol	0.0106	0.0145	0.0189	0.0244	0.0308	0.0385	0.047	0.057	0.0677	0.0809
in isopropanol	0.0195	0.0231	0.0276	0.0332	0.0399	0.0479	0.0571	0.0676	0.0819	0.0982
in n-butanol	0.0172	0.0208	0.0248	0.03	0.0365	0.0439	0.053	0.0642	0.0786	0.0958
in n-heptanol	0.00987	0.0135	0.0177	0.0225	0.0276	0.0338	0.0414	0.0507	0.0625	0.0776
in n-octanol	0.00855	0.0118	0.0154	0.0194	0.0241	0.0301	0.0376	0.0476	0.0606	0.0753
in n-propanol	0.0203	0.0248	0.0299	0.0353	0.0416	0.0498	0.0592	0.0718	0.0859	0.103
in toluene	0.00446	0.00515	0.00616	0.0075	0.00924	0.0112	0.0133	0.0156	0.0179	0.0207
in water	0.000571	0.000674	0.000801	0.000965	0.00116	0.0014	0.00169	0.00203	0.00247	0.00297

— BigSolDB 2.1
